In patent US20040146554A1, “Method for the administration of acid-labile drugs” (priority 2000, published 2004):

Tests used:
[1] = Suspending PPI capsule granules or tablets in calcium carbonate suspension; assay type: physicochemical; conditions: granular contents of capsule (20 mg omeprazole, 30 mg lansoprazole) in 10 cc of 4 gm % or 8 gm % calcium carbonate suspension
Experimental: More specifically, suspensions of calcium carbonate were produced by dissolving either 400 mg or 800 mg of calcium carbonate in 10 cc of water, resulting in suspensions of 4 gm % and 8 gm %, respectively. In separate 10 cc preparations of either strength of the calcium carbonate suspension, the granular contents of a 20 mg omeprazole capsule, a 30 mg lansoprazole capsule, a 20 mg rabeprazole tablet, and a 40 mg pantoprazole tablet were suspended. In approximately 30 minutes, the granules of the omeprazole and lansoprazole capsules were in complete suspension. In approximately two hours, the contents of the tablets of rabeprazole and pantoprazole had completely suspended.

gastric acid secretion = conditions: intact granules suspended in orange juice, via gastrostomy tube; cited from earlier work

## Cc1c(OCC(F)(F)F)ccnc1C[S+]([O-])c1nc2ccccc2[nH]1 (centres unmarked) [lansoprazole]
[1]
  time until granules were in complete suspension: approximately 30 minutes
Gastric acid secretion
  suppression of gastric acid secretion: produced the desired effect of suppressing gastric acid secretion
